Experiments:
[1] = molecular target: CDK6 (Homo sapiens (Human), UniProt Q00534); assay: CDK6 protein kinase activity, Caliper mobility shift assay; type: biochemical; settings: GST-CDK6(1-326 end), substrate Peptide FAM-P8, 28° C. for 3 h
Experimental: (§1) Activity Assay: The CDK6 protein kinase activity was measured using the Caliper mobility shift assay (see J. Biomol. Screen, 2009, PP31). The test compound was dissolved in DMSO and diluted with a kinase buffer solution (20 mM HEPES-pH 7.5, 0.01% Triton X-100, 10 mM MgCl2, 2 mM DTT) and 5 μL of compound at 5-fold final concentration of reaction dissolved in 10% DMSO was added in a 384-well plate. The compound-free control well was 5 μL of 10% DMSO, and the no-activity control well was 5 μL of kinase buffer. 10 μL of a 2.5-fold diluted CDK6 enzyme solution (GST-CDK6(1-326 end)) was added and incubated at room temperature for 10 min, and then 10 μL of the 2.5-fold diluted substrate solution Peptide FAM-P8 was added. The reaction was stopped by adding 25 μL of stop solution after incubation at 28° C. for 3 h, and the conversion rate data was read on a Caliper EZ Reader II (Caliper Life Sciences) and the conversion rate was converted to inhibition rate data according to above method. Among them, the inhibition rate %=(max−conversion)/(max−min)×100%.

[2] = molecular target: CDK4 (Homo sapiens (Human), UniProt P11802); assay: CDK4 protein kinase activity, Caliper mobility shift assay; type: biochemical; settings: GST-CDK4(1-303 end), substrate Peptide FAM-P8, 28° C. for 3 h
Experimental: as §1, with “activity assay:” for “Activity Assay:”, “CDK4” for “CDK6”, “(GST-CDK4(1-303” for “(GST-CDK6(1-326”

Sequence of CDK4 (P11802 whole entry): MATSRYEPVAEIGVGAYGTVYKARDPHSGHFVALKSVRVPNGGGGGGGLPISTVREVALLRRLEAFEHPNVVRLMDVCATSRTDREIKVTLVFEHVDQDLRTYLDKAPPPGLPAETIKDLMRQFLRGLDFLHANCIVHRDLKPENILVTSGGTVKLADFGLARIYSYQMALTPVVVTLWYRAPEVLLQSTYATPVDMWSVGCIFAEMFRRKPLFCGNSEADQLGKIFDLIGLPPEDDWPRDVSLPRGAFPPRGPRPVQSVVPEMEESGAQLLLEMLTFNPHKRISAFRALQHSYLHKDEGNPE
Sequence of CDK4 (P30281 whole entry partner): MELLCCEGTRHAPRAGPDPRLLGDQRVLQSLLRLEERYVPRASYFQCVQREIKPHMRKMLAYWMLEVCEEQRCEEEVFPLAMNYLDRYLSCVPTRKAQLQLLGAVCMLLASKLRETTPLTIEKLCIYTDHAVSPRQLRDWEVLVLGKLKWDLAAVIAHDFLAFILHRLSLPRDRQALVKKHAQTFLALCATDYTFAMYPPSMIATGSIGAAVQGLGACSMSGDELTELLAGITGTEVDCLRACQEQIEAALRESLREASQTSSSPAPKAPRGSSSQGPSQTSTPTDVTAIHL
Sequence of CDK6 (Q00534 whole entry): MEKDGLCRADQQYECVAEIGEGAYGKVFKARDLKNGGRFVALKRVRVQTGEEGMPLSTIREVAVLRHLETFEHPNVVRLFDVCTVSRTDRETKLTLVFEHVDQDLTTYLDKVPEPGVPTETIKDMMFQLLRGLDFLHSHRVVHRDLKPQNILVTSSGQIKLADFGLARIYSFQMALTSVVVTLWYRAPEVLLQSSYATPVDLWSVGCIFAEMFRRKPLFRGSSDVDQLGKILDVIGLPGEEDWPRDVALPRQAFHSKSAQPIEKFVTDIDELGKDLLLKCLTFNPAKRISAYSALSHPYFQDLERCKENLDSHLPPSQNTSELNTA
Sequence of CDK6 (P30281 whole entry partner): as the sequence (P30281 whole entry partner) above

## CCN1CCN(Cc2ccc(Nc3ncc(F)c(-c4ccc5c(ccn5C(C)C)c4)n3)nc2)CC1 [Compound I-1, N-(5-(4-ethylpiperazine-1-methyl)-pyridin-2-yl)-5-fluoro-4-(1-isopropyl-1H-indol-5-yl)-pyrimidin-2-amine]
[1]
  IC50: ≤ 20 nM
[2]
  IC50: ≤ 20 nM

## CCC(CC)n1c(C(C)=O)cc2cc(-c3nc(Nc4ccc(CN5CCN(C)CC5)cn4)ncc3Cl)ccc21 [Compound I-15, N-(5-(4-methylpiperazine-1-methyl)-pyridin-2-yl)-5-chloro-4-(1-(3-pentyl)-2-acetyl-1H-indol-5-yl)pyrimidin-2-amine]
[1]
  IC50: 20 to 100 nM
[2]
  IC50: 100 to 500 nM

## CCN1CCN(Cc2ccc(Nc3ncc(F)c(-c4ccc5nnc(C(C)=O)n5c4)n3)nc2)CC1 [Compound I-35, N-(5-(4-ethylpiperazine-1-methyl)-pyridin-2-yl)-5-fluoro-4-(3-acetyl-[1,2,4]triazolo[4,3-a]pyridin-6-yl)pyrimidin-2-amine]
[1]
  IC50: 20 to 100 nM
[2]
  IC50: 20 to 100 nM

## CC(=O)c1cc2cc(-c3nc(Nc4ccc(N5CCNCC5)cn4)ncc3F)ccc2n1C(C)C [Compound I-23, N-(5-(piperazin-1-yl)-pyridin-2-yl)-5-fluoro-4-(1-isopropyl-2-acetyl-1H-indol-5-yl)pyrimidin-2-amine]
[1]
  IC50: ≤ 20 nM
[2]
  IC50: ≤ 20 nM

## CC(C)c1nnc2ccc(-c3nc(Nc4ccc(N5CCNCC5)cn4)ncc3F)cn12 [Compound I-7, N-(5-(piperazin-1-yl)-pyridin-2-yl)-5-fluoro-4-(3-isopropyl-[1,2,4]triazolo[4,3-a]pyridine-6-yl)pyrimidin-2-amine]
[1]
  IC50: ≤ 20 nM
[2]
  IC50: ≤ 20 nM

## Cc1nc2cnc(-c3nc(Nc4ccc(N5CCN(C)CC5)cn4)ncc3F)nc2n1C(C)C [Compound I-47, N-(5-(4-methylpiperazin-1-yl)-pyridin-2-yl)-5-fluoro-4-(9-isopropyl-8-methyl-9H-purin-2-yl)pyrimidin-2-amine]
[1]
  IC50: 20 to 100 nM
[2]
  IC50: ≤ 20 nM

## CC(=O)c1cn(C2CCCC2)c2ccc(-c3nc(Nc4ccc(N5CCNCC5)cn4)ncc3F)cc12 [Compound I-3, N-(5-(piperazin-1-yl)-pyridin-2-yl)-5-fluoro-4-(1-cyclopentyl-3-acetyl-1H-indol-5-yl)pyrimidin-2-amine]
[1]
  IC50: ≤ 20 nM
[2]
  IC50: ≤ 20 nM

## Fc1cnc(Nc2ccc(CN3CCN(C4CCCCC4)CC3)cn2)nc1-c1ccc2c(c1)c(C1CCC1)cn2C1CCCCC1 [Compound I-19, N-(5-(4-cyclohexylpiperazin-1-methyl)-pyridin-2-yl)-5-fluoro-4-(1-cyclohexyl-3-cyclobutyl-1H-indol-5-yl)pyrimidin-2-amine]
[1]
  IC50: > 500 nM
[2]
  IC50: ≤ 20 nM

## CCN1CCN(Cc2ccc(Nc3ncc(F)c(-c4ccc5nnc(C(C)C)n5c4)n3)nc2)CC1 [Compound I-6, N-(5-(4-ethylpiperazine-1-methyl)-pyridin-2-yl)-5-fluoro-4-(3-isopropyl-[1,2,4]triazolo[4,3-a]pyridin-6-yl)pyrimidin-2-amine]
[1]
  IC50: 20 to 100 nM
[2]
  IC50: ≤ 20 nM

## CC(=O)c1c2ccc(-c3nc(Nc4ccc(N5CCNCC5)cn4)ncc3F)nc2nn1C1CC1 [Compound I-29, N-(5-(piperazin-1-yl)-pyridin-2-yl)-5-fluoro-4-(2-cyclopropyl-3-acetyl-2H-7-azaindazol-6-yl)pyrimidin-2-amine]
[1]
  IC50: ≤ 20 nM
[2]
  IC50: ≤ 20 nM

## CCN1CCN(Cc2ccc(Nc3ncc(F)c(-c4ccc5c(c(C)nn5C5CCCC5)c4F)n3)nc2)CC1 [Compound I-45, N-(5-(4-ethylpiperazine-1-methyl)-pyridin-2-yl)-5-fluoro-4-(1-cyclopentyl-3-methyl-4-fluoro-1H-indazol-5-yl)pyrimidin-2-amine]
[1]
  IC50: 20 to 100 nM
[2]
  IC50: 20 to 100 nM

## CN1CCN(c2ccc(Nc3ncc(F)c(-c4ncc5nc(C(=O)N(C)C)n(C6CCCC6)c5n4)n3)nc2)CC1 [Compound I-37]
[1]
  IC50: 20 to 100 nM
[2]
  IC50: ≤ 20 nM

## CCN1CCN(Cc2ccc(Nc3ncc(F)c(-c4ccc5c(c4)cc(C(=O)N(C)C)n5C4CCCC4)n3)nc2)CC1 [Compound I-22, N-(5-(4-ethylpiperazine-1-methyl)-pyridin-2-yl)-5-fluoro-4-(1-cyclopentyl-2-formic acid diformamido-1H-indol-5-yl)pyrimidin-2-amine]
[1]
  IC50: ≤ 20 nM
[2]
  IC50: ≤ 20 nM

## CCN1CCN(Cc2ccc(Nc3ncc(F)c(-c4ccc5c(cc(C(=O)N(C)C)n5C(C)C)c4F)n3)nc2)CC1 [Compound I-27, N-(5-(4-ethylpiperazine-1-methyl)-pyridin-2-yl)-5-fluoro-4-(1-isopropyl-2-formic acid diformamido-1H-4-fluoroindol-5-yl)pyrimidin-2-amine]
[1]
  IC50: ≤ 20 nM
[2]
  IC50: ≤ 20 nM

## CCN1CCN(Cc2ccc(Nc3ncc(F)c(-c4ncnc5c4c(C#N)cn5C)n3)nc2)CC1 [Compound I-42, N-(5-(4-ethylpiperazine-1-methyl)-pyridin-2-yl)-5-fluoro-4-(5-cyano-7-methyl-7H-pyrrolo[2,3-d]pyrimidin-4-yl)pyrimidin-2-amine]
[1]
  IC50: 20 to 100 nM
[2]
  IC50: ≤ 20 nM

## CN(C)C(=O)c1cc2cc(-c3nc(Nc4ccc(N5CCNCC5)cn4)ncc3F)ccc2n1C1CCCC1 [Compound I-14, N-(5-(piperazin-1-yl)-pyridin-2-yl)-5-fluoro-4-(1-cyclopentyl-2-formic acid diformamido-1H-indol-5-yl)pyrimidin-2-amine]
[1]
  IC50: ≤ 20 nM
[2]
  IC50: ≤ 20 nM

## CCN1CCN(Cc2ccc(Nc3ncc(F)c(-c4ccc5c(cc(C(=O)N(C)C)n5C(C)C)n4)n3)nc2)CC1 [Compound I-26, N-(5-(4-ethylpiperazine-1-methyl)-pyridin-2-yl)-5-fluoro-4-(1-isopropyl-2-formic acid diformamido-1H-4-azaindol-5-yl)pyrimidin-2-amine]
[1]
  IC50: 20 to 100 nM
[2]
  IC50: ≤ 20 nM

## CN(C)C(=O)c1c2ccc(-c3nc(Nc4ccc(N5CCNCC5)cn4)ncc3F)c(F)c2nn1C [Compound I-31, N-(5-(piperazin-1-yl)-pyridin-2-yl)-5-fluoro-4-(2-methyl-3-formic acid diformamido-2H-7-fluoro-indazol-6-yl)pyrimidin-2-amine]
[1]
  IC50: ≤ 20 nM
[2]
  IC50: ≤ 20 nM

## CCC(CC)n1c(C(C)C)nc2cnc(-c3nc(Nc4ccc(CN5CCN(C)CC5)cn4)ncc3F)nc21 [Compound I-39, N-(5-(4-methylpiperazin-1-methyl)-pyridin-2-yl)-5-fluoro-4-(9-(3-pentyl)-8-isopropyl-9H-purin-2-yl)pyrimidin-2-amine]
[1]
  IC50: ≤ 20 nM
[2]
  IC50: ≤ 20 nM

## CC(=O)c1cn(C2CCCCCC2)c2ccc(-c3nc(Nc4ccc(CN5CCN(C6CCCC6)CC5)cn4)ncc3F)cc12 [Compound I-20, N-(5-(4-cyclopentylpiperazin-1-methyl)-pyridin-2-yl)-5-fluoro-4-(1-cycloheptyl-3-acetyl-1H-indol-5-yl)pyrimidin-2-amine]
[1]
  IC50: ≤ 20 nM
[2]
  IC50: ≤ 20 nM

## CCN1CCN(Cc2ccc(Nc3ncc(F)c(-c4ncc5nc(C)n(C(C)C)c5n4)n3)nc2)CC1 [Compound I-9, N-(5-(4-ethylpiperazine-1-methyl)-pyridin-2-yl)-5-fluoro-4-(9-isopropyl-8-methyl-9H-purin-2-yl)pyrimidin-2-amine]
[1]
  IC50: 20 to 100 nM
[2]
  IC50: 20 to 100 nM

## Fc1cnc(Nc2ccc(CN3CCN(C4CCCCCC4)CC3)cn2)nc1-c1ccc2c(c1)c(C1CC1)cn2C1CCC1 [Compound I-18, N-(5-(4-cycloheptylpiperazine-1-methyl)-pyridin-2-yl)-5-fluoro-4-(1-cyclobutyl-3-cyclopropyl-1H-indol-5-yl)pyrimidin-2-amine]
[1]
  IC50: ≤ 20 nM
[2]
  IC50: ≤ 20 nM

## CCN1CCN(Cc2ccc(Nc3ncc(F)c(-c4ccc5c(c4)c(C(C)=O)cn5C4CCCC4)n3)nc2)CC1 [Compound I-4, N-(5-(4-ethylpiperazine-1-methyl)-pyridin-2-yl)-5-fluoro-4-(1-cyclopentyl-3-acetyl-1H-indol-5-yl)pyrimidin-2-amine]
[1]
  IC50: 20 to 100 nM
[2]
  IC50: ≤ 20 nM

## CC(C)c1c(C#N)n(C2CC2)c2ccc(-c3nc(Nc4ccc(CN5CCN(C6CC6)CC5)cn4)ncc3F)cc12 [Compound I-17, N-(5-(4-cyclopropylpiperazine-1-methyl)-pyridin-2-yl)-5-fluoro-4-(1-cyclopropyl-2-cyano-3-isopropyl-1H-indol-5-yl)pyrimidin-2-amine]
[1]
  IC50: 20 to 100 nM

## CC(C)c1c2ccc(-c3nc(Nc4ccc(N5CCNCC5)cn4)ncc3F)c(Cl)c2nn1C [Compound I-30, N-(5-(piperazin-1-yl)-pyridin-2-yl)-5-fluoro-4-(2-methyl-3-isopropyl-2H-7-chloro-indazol-6-yl)pyrimidin-2-amine]
[1]
  IC50: 20 to 100 nM
